The target in one test is T1, consensus OR2T27 (Homo sapiens, UniProt Q8NH04, A21T/G216A/G235R/H131R/I13V/I140V/K45M/L36V/R69M/S88G/T37I/V304A/V305L/V43T/V8M/W142L).
T1 construct: expressed in transfected cells; host or cells: HEK293
Kind of test: Luciferase assay, sulfur compounds. Format: cell-based. The note with it: in the presence of a copper ion.

A further test deals with T2, consensus OR2T5 (Homo sapiens, UniProt Q6IEZ7, A76M/C55S/F147L/I190K/I217V/K41M/L14S/L223S/L224F/L249M/L87M/M19V/M302T/M75V/R23S/R24Q/R6W/S169T/S32C/S61T/T121A/T189M/V229I/V48I/V96I/W176R).
T2 construct: expressed in transfected cells; host or cells: HEK293
T2 sequence (Q6IEZ7 with tags, fused parts or gaps R6W/L14S/M19V/R23S/R24Q/S32C/K41M/V48I/C55S/S61T/M75V/A76M/L87M/V96I/T121A/F147L/S169T/W176R/T189M/I190K/I217V/L223S/L224F/V229I/L249M/M302T): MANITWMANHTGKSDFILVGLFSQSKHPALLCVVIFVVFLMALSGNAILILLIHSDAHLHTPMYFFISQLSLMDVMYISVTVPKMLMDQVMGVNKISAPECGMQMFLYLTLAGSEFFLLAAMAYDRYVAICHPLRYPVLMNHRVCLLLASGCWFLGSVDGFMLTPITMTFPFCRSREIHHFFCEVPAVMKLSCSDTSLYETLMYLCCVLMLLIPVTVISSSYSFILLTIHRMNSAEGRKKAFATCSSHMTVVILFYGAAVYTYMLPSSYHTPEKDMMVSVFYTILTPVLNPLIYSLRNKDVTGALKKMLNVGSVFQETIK
Kind of test: Luciferase assay, sulfur compounds. Format: cell-based.

In the next test the target is T3, consensus OR6B1 (Homo sapiens, UniProt O95007, C165R/C227R/F212S/I201V/I253T/L3V/L50Q/L96H/N89S/S282A/T195A/V262A).
T3 construct: expressed in transfected cells; host or cells: HEK293
Kind of test: Luciferase assay, sulfur compounds. The note with it: in the presence of a copper ion. Format: cell-based.

The target of another test is OR4C15 (Homo sapiens, UniProt Q8NGM1). The note with it: JP-A-2020-510436; cited from earlier work.
The next test concerns the target OR2L13 (Homo sapiens, UniProt Q8N349). The note with it: JP-A-2020-510436; cited from earlier work.
For a further test, the system named is OR2T1. The note with it: in the presence of a metal ion (JP-B-6122181); cited from earlier work.
Where [1] appears, read: in the presence of a copper ion.

As usually defined, the EC50 is the concentration that produces a half-maximal response.

T1 sequence (Q8NH04 with tags, fused parts or gaps with the stated changes): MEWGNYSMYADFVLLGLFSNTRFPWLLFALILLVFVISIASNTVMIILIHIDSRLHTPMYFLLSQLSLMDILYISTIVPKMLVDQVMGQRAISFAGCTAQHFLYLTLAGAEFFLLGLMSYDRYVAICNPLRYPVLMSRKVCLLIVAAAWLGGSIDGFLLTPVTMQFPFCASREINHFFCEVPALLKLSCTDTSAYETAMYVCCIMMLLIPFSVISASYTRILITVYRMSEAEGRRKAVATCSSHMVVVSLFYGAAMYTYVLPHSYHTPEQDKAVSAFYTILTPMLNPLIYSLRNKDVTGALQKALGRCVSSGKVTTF
T3 sequence (O95007 whole entry L3V/L50Q/N89S/L96H/C165R/T195A/I201V/F212S/C227R/I253T/V262A/S282A): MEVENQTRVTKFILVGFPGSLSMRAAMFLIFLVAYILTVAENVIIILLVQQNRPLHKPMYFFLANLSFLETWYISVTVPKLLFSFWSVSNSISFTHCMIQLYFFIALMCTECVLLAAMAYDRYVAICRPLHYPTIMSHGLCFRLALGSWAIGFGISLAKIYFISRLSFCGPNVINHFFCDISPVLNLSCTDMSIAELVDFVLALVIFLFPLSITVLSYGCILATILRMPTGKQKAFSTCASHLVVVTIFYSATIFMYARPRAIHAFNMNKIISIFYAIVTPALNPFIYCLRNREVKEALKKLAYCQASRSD
Sequence of OR2L13 (Q8N349 whole entry): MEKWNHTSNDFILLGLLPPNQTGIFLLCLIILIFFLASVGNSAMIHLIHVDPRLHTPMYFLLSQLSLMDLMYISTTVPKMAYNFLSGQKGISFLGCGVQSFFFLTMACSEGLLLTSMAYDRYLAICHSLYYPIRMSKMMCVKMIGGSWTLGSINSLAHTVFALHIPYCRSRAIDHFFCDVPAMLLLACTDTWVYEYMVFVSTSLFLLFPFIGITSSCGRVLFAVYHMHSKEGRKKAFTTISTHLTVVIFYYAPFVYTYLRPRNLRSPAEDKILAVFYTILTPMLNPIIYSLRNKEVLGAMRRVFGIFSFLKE
Sequence of OR4C15 (Q8NGM1 whole entry): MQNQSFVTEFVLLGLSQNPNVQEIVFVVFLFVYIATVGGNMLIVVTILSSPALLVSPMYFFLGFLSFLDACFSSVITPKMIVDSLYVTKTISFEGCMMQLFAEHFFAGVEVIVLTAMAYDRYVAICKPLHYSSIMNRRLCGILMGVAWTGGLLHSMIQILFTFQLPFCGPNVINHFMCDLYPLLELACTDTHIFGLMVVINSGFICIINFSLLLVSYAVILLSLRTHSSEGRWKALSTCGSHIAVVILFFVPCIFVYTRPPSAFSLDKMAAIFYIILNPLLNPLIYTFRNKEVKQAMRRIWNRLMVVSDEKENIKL

Regarding `CSSC` [dimethyl disulfide], the “response of consensus OR2T27” value on consensus OR2T27 is reported as “responded”. The “response of consensus OR2T5” value on consensus OR2T5 (setting [1]) is recorded as “responded”.

As to `CSSSC` [dimethyl trisulfide], the “response of consensus OR6B1” value on consensus OR6B1 is recorded as “responded”. Besides, on OR4C15, the “response of OR4C15” value is “respond”. On OR2L13, the “response of OR2L13” value was “respond”.

As to `CS` [methyl mercaptan], the “response of consensus OR2T27” value on consensus OR2T27 is on record as “responded”. This compound also came in with an EC50 on consensus OR2T5 (consensus OR2T5, 30 μM CuCl2) of 217 µM. At consensus OR2T5 (setting [1]), the “dose dependence of the response of consensus OR2T5” value is reported as “dose-dependent response” and the “response of consensus OR2T5” value is “responded”. In addition, the “response of OR2T1” value in the test with OR2T1 is recorded as “respond”.

Values taken from patent US20240279302A1, “OLFACTORY RECEPTOR EXPRESSING METHOD AND RESPONSE MEASUREMENT METHOD” (Kao Corporation, priority 2021, published 2024).
